Experimental findings from US5006512A, “Therapeutic usages of inhibitors for a potassium efflux channel” (priority 1988, dated 1991) are described below.

“Also recorded” adds a separate entry of the source.

Data set [1] relates to mice. As to the kind of experiment: Acute toxicity (LD50) in mice, i.p. It counts as in vivo.
In data set [2] the test system is brain ischemia. As to the kind of experiment: Brain focal ischemia, water content of hemisphere (brain edema). In kind it is in vivo, rat. The note with it: 0.14 mg/kg i.v. thirty minutes prior to ischemic insult; 1 hour focal ischemia. As to the method: (§1) (a) Surgical procedures: Adults male Sprague-Dwaley rats weighing 250-300 g were used in these studies. Anesthesia was induced and maintained with halothane (1.0-2.5%) via closely fitted facial mask. Bilateral common carotid arteries (CCA) were exposed gently and the right CCA was ligated in two places by 4-0 silk suture. To expose the right middle cerebral artery (MCA), the temporal muscles were cut and retracted, then, a small temporal craniotomy (2=2 mm) was performed with a microdrill. Under a microscope, the dura matter was opened with a 26 guage needle, and the MCA was ligated by 10-0 suture with a square knot. Immediately, the left CCA was occluded by a microaneurysmal clip. After the operation, the animal was returned to the cage. One hour later, the left CCA clip was released under awake condition. The sham-operated control was produced in a similar procedure, except for the ligation and clipping of vessels. The operation was usually finished within 30 min.
(b) Water content and ionic analysis: After fixed time interval (1, 3, and 7 days), the animal was sacrificed and the excised cerebral hemispheres were placed in preweighed crucible and measured an wet weight (W.W) with a chemical balance (Mettler, AE 100). […] The water content (% wet weight) was calculated by (W.W -D.W)/W.W. […]

Data set [3] relates to brain focal ischemia. Briefly: Brain focal ischemia, motor performance test. As to conditions: 0.14 mg/kg. It counts as in vivo, rat. As for the experimental part:
as §1, with “The sham-operated control was produced in a similar procedure, except for the ligation and clipping of vessels. The operation was usually finished within 30 min.” left out
(c) Motor performance test: The disturbance of motor function was evaluated by the total score obtained from inclined plate test, balance beam test and prehensile test. These motor performance tests were dsesigned to quantify the motor weakness in the global ischemia rats. […] The animal was placed at the highest position of the plate and the time which it could stay on the plate was measured untill 30 sec. […] The time spent on the rod was recorded untill 30 sec. […] The time spent in hanging on the rope was measured untill 30 sec. […]

Data set [4] concerns sickle red blood cells. As to the kind of experiment: Formation of irreversibly sickled cells by sickling-unsickling cycling in vitro. It counts as cell-based. From the text: The inventor previously developed a method to produce irreversibly sickled cells (ISC, which have irreversibly denatured membranes) by exposing sickle red blood cells to a repeated sickling-unsickling cycling in vitro. He used this system to determine the efficacy of a drug in protecting cell membranes (Ohnishi, Br. J. Haematol. 55:665-671, 1983). […] These heavy cells were collected, the amount measured, and the percentage of production calculated (Table 3). As shown in the Table, MR-103 inhibited the formation of irreversibly denatured cells at an extremely low concentration. Even at 20 nM, it inhibited the production of denatured cell almost 50%. […] The subfragment comound MR-117 was also found to have a remarkable effect (Table 4). At a concentration of 60 nM, it inhibited the formation of denatured cells by more than 50%.

As for `CSCC[C@@H]1NC(=O)[C@H](CS)NC(=O)[C@H](CCCCN)NC(=O)CNC(=O)[C@H](CCCNC(=N)N)NC(=O)[C@H](CO)NC(=O)[C@H]([C@@H](C)O)NC(=O)[C@H](CC(N)=O)NC(=O)[C@H](Cc2c[nH]cn2)NC(=O)[C@H](CC(C)C)NC(=O)[C@H](CCCNC(=N)N)NC(=O)[C@H](CCC(N)=O)NC(=O)[C@@H]2CSSC[C@@H](C(=O)N[C@@H](Cc3ccc(O)cc3)C(=O)N[C@@H](CO)C(=O)O)NC(=O)[C@H](CCCNC(=N)N)NC(=O)[C@H](CSSC[C@H](N)C(=O)N[C@@H](Cc3c[nH]c4ccccc34)C(=O)N[C@@H](CO)C(=O)N[C@@H](C(C)C)C(=O)N2)NC(=O)[C@H](CCCCN)NC(=O)[C@H](CCCCN)NC(=O)[C@H](CC(N)=O)NC1=O` [MR-117], the “Acute toxicity (LD50)” value in data set [1] came out at 0.92 mg/kg. Moreover, the “increase of water content of ischemia-exposed hemisphere” value in data set [2] is reported as “inhibited the increase of water content; also recorded: much reduced”. Further, the “effect on motor performance after brain focal ischemia (in words)” value in data set [3] (1 hour focal ischemia, 3 and 7 days) is given as “remarkable recovery effect”. The “Motor Score” value in data set [3] (3 days after ischemia, scale 0-12, no drug 6.93, sham 11.13) was determined as 9.50 ± 0.56. Besides, the Irreversibly sickling cells in data set [4] (60 nM drug during cycling) is given as 14.8 percentages; in data set [4] (100 nM drug during cycling) it was 10.3 percentages; in data set [4] (200 nM drug during cycling), 0 percentages. Further, the Reversibly sickling cells came to 85.2 percentages in data set [4] (60 nM drug during cycling), 89.7 percentages in data set [4] (100 nM drug during cycling) and 100 percentages in data set [4] (200 nM drug during cycling).
